{
  "source": "patent EP3325012B1",
  "about": "“CINEOLE-CONTAINING COMPOSITION FOR TREATING NOSE POLYPS” (Maria Clementine Martin Klosterfrau Vertriebsgesellschaft …, priority 2015, dated 2017)",
  "key": {"[1]": {"system": "proinflamatorischer Zytokine", "conditions": "inhalation; cited from earlier work"}, "[2]": {"system": "permanente Zelllinien maligner Kopf-Hals-Tumoren", "assay": "Cell migration test (xCELLigence)", "format": "cell-based", "conditions": "2 mM", "description": "Um den Einfluss von Cineol auf die zelluläre Migrations-Aktivität zu untersuchen, wurden Migrations-CIM-Platten 16 (Roche, Mannheim, Deutschland), bei welchen es sich um ein durch eine poröse Membran getrenntes 2-Kammer-System handelt, entsprechend der Bedienungsanleitung des Herstellers verwendet (Roche Diagnostics). Die Zellen wandern dabei von der oberen Kammer durch die Membran und haften an den elektronischen Sensoren an der Unterseite der Membran, so dass ein Anstieg der Impedanz resultiert. Die Veränderungen werden automatisch und kontinuierlich durch das RTCA-DP-Instrument aufgezeichnet, und die Zellmigrations-Aktivität kann durch das Zell-Index-Profil überwacht werden. Vor dem Befüllen der Wells mit Zellen (60.000 Zellen/Well) wurde die Unterseite der Wells der oberen Kammer der CIM-Platte 16 mit 30 µl Collagen I ([…], Sigma, Deisenhofen, Deutschland) beschichtet. Jede Behandlungsbedingung wurde in dreifacher Ausführung gemessen.\nNeben der zellulären Vitalität und Progression sowie dem Einfluss auf Apoptose und Zellzyklus hat die Anmelderin auch den Einfluss von Cineol auf das zelluläre Migrationsverhalten untersucht. […]"}, "Nasenpolypenzellen": {"system": "Nasenpolypenzellen", "assay": "Proliferation of nasal polyp cells (xCELLigence Real Time Cell Analyzer; figure legend says MTT test)", "format": "cell-based, Mensch", "conditions": "100 µM 1,8-Cineol, after 144 Stunden; two subjects I and II (Figur 2A)", "description": "Material und Methoden: Die Anmelderin hat Gewebeproben aus Nasenpolypen und unteren Nasenmuscheln von Patienten mit CRSwNP (chronischer Rhinosinusitis mit Nasenpolypen) und aus unteren Nasenmuscheln von Probanden ohne chronische Sinusitis (gesunde Schleimhaut) auf Basis von immunohistochemischen Methoden und Immunoblot-Verfahren untersucht. Die zelluläre Proliferation und Migration wurden unter Einsatz des xCELLigence Real Time Cell Analyzer untersucht.\nProben von Nasenpolypen wurden in PBS-Puffer gewaschen und in sterilem serumfreiem \"High Glucose Dulbecco's Modified Eagle Medium\" (PAA, Pasching, Österreich) mit einer Skalpellklinge vorsichtig in kleine Stücke zerkleinert, wobei das Medium 1 % L-Glutamin, 1 % Natriumpyruvat, 1 % nichtessentielle Aminosäuren, 2 % Amphotericin B, 2 % Streptomycin und 2 % Penicillin, ergänzt mit 10 % FCS, und 25 mM HEPES Puffer, enthielt (alle von PAA, Pasching, Österreich). […]\nDie Zellproliferation wurde mittels eines quantitativen kolorimetrischen 3-(4,5-Dimethylthiazol 2-yl)-2,5-diphenyltetrazoliumbromid-basierten (MTT) Zelltests bestimmt. […]"}, "Polyposis nasi et sinuum": {"system": "Polyposis nasi et sinuum", "assay": "Cell vitality of polyp single-cell suspensions in culture", "format": "cell-based, Mensch", "conditions": "1mM Cineol versus standard medium, culture over 288 Stunden; effect after 96 bis 144 Stunden; polyps of 5 patients", "description": "Proben von Nasenpolypen wurden in PBS-Puffer gewaschen und in sterilem serumfreiem \"High Glucose Dulbecco's Modified Eagle Medium\" (PAA, Pasching, Österreich) mit einer Skalpellklinge vorsichtig in kleine Stücke zerkleinert, wobei das Medium 1 % L-Glutamin, 1 % Natriumpyruvat, 1 % nichtessentielle Aminosäuren, 2 % Amphotericin B, 2 % Streptomycin und 2 % Penicillin, ergänzt mit 10 % FCS, und 25 mM HEPES Puffer, enthielt (alle von PAA, Pasching, Österreich). Danach wurden die Gewebeproben durch eine enzymatische Behandlung und Waschschritte mit Collagenase Typ II (31,5 mg/ml, GIBCO, Eggenstein, Deutschland) und Hyaluronidase (3,99 mg/ml, Sigma, München, Deutschland) in einem ersten Schritt und mit Dispase (33,4 mg/ml, Sigma, München, Deutschland) in einem zweiten Schritt jeweils unter Schütteln bei 37 °C für 120 Minuten enzymatisch verdaut. Zwischen den enzymatischen Behandlungen und den Waschschritten wurden die Zellen zentrifugiert. Die resultierenden Zellsuspensionen wurden in PBS (PAA, Pasching, Österreich), enthaltend 2 % BSA, gewaschen und jeweils durch einen 70 µm und einen 60 µm Nylon-Zellfilter (Falcon, Becton Dickinson Labware, Heidelberg, Deutschland) filtriert.\nErste Vorversuche zum Einfluss von Cineol auf die Progression von Polyposis nasi et sinuum wurden durchgeführt. […]"}},
  "note": "“Also recorded” adds a separate entry of the source.",
  "data": [
    {"smiles": "CC12CCC(CC1)C(C)(C)O2", "note": "[1,8-Cineol, 1,3,3-Trimethyl-2-oxabicyclo[2.2.2]octan]", "values": [
      {"measurement": "proinflamatorische Zytokine", "setting": "[1]", "value": "deutlichen Reduktion"},
      {"measurement": "zelluläre Migrationsaktivität", "setting": "[2]", "value": "leichten Einfluss"},
      {"measurement": "Proliferation von Nasenpolypenzellen", "setting": "Nasenpolypenzellen", "value": "stark verringerte Proliferation; also recorded: stark abnehmende Proliferation"},
      {"measurement": "Zellvitalität", "setting": "Polyposis nasi et sinuum", "value": "massiven Abfall"}
    ]}
  ]
}
